The source of these data is publication PMC10046901, “Molecular Analysis of the Superior Efficacy of a Dual Epidermal Growth Factor Receptor (EGFR)-DNA-Targeting Combi-Molecule in Comparison with Its Putative Prodrugs 6-Mono-Alkylamino- and 6,6-Dialkylaminoquinazoline in a Human Osteosarcoma Xenograft Model” (Cells, 2023).

In general, IC50 refers to the point on the concentration scale where inhibition reaches its midpoint.

The test system of one assay is U2-OS. Briefly: cells. It counts as cell-based. Particulars: Homo sapiens, U2OS, 120 h, read-out: IC50 growth inhibition.
For a further assay, the system named is Saos-2. The experiment in a line: cells. It counts as cell-based, human. The note with it: Homo sapiens, SAOS-2, 120 h, read-out: IC50 growth inhibition.
The subject of a further assay is MG-63. Briefly: cells. It counts as cell-based. The note with it: Homo sapiens, MG-63, 120 h, read-out: IC50 growth inhibition.
The test system of a further assay is MNNG/HOS. Briefly: cells. The note with it: 120 h, read-out: IC50 growth inhibition. It counts as cell-based.
Another assay deals with KHOS/NP. Briefly: cells. It counts as cell-based. The note with it: Homo sapiens, 120 h, read-out: IC50 growth inhibition.
Assay [1] deals with several other osteosarcoma cell lines. Details: method as in PMID 23091447. Particulars: concentrations of up to 20 μM; cited from earlier work.

`O=C(O)CCCc1ccc(N(CCCl)CCCl)cc1` [Chlorambucil, chlorambucil, reference compound]: the half-maximal inhibitory concentration (IC50) turned out to be 9.59 ± 0.55 µM with U2-OS; 7.53 ± 0.75 µM in the assay with Saos-2; 13.1 ± 1.28 µM in the assay with MG-63; 12.1 ± 1.01 µM in the assay with MNNG/HOS; 9.25 ± 1.35 µM in the assay on KHOS/NP.

In the case of `COc1cc2ncnc(Nc3ccc(F)c(Cl)c3)c2cc1OCCCN1CCOCC1` [Gefitinib, gefitinib], the “effect on viability of osteosarcoma cell lines” value in assay [1] is “did not reduce the viability”.
